This note sets out measurements from PubChem BioAssay (NCI).

Experiment in all cases: NCI-60 cell line screen, 48 h
The subject of assay [1] is HCC-2998 colon.
For assay [2], the system named is MDA-MB-435.
In assay [3] the test system is SNB-75 CNS.
For assay [4], the system named is SR leukemia.
The subject of assay [5] is NCI-H226 lung.
Assay [6] deals with NCI-H522 lung.
Assay [7] has as its system HL-60(TB) leukemia.
Assay [8] concerns UACC-62 melanoma.
Assay [9] has as its system SN12C renal.
Assay [10] deals with OVCAR-3 ovarian.
Assay [11] concerns SK-MEL-2 melanoma.
In assay [12] the test system is HT29 colon.
Assay [13] deals with CCRF-CEM leukemia.
Assay [14] deals with LOX IMVI melanoma.
For assay [15], the system named is 786-0 renal.
For assay [16], the system named is U251 CNS.
Assay [17] has as its system HCT-15 colon.
The test system of assay [18] is SW-620 colon.
The test system of assay [19] is OVCAR-5 ovarian.
The test system of assay [20] is SK-MEL-28 melanoma.

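Briefly, cells in 96-well plates were exposed to five compound concentrations for 48 h, and endpoints were estimated by linear interpolation. TGI: concentration producing complete growth inhibition.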

`COc1cc2ccc1OCc1cccc(n1)COc1ccc(cc1OC)C=Nc1ccc(cc1)-c1ccc(cc1)N=C2`: the TGI in assay [1], in assay [2], in [3], in assay [4], in assay [5] and in [6] was above 100 µM each time. In addition, the TGI in assay [7], in assay [8], in assay [9], in assay [10], in assay [11] and in assay [12] was above 100 µM in each case. The TGI in [13], in assay [14], in assay [15], in [16], in [17] and in assay [18] was above 100 µM each time.
Regarding `CC1(C)CCC[C@@]2(C)C1C(=O)[C@@H]1O[C@]1(C)[C@@H]2CO` (stereo partly specified), the TGI in assay [1] was 66.5 µM; in assay [2] it was above 100 µM; in assay [3], 79 µM; in assay [4], 24.9 µM; in [5], above 100 µM; in assay [6], 93.1 µM. Besides, the TGI in assay [7] is 51.8 µM; in assay [8], above 100 µM; in assay [9] it was above 100 µM; in assay [10] it was 50.8 µM; in [19] it was above 100 µM; in [20], 80.9 µM. Further, the TGI in assay [11] is 66.5 µM; in assay [12], above 100 µM; in assay [13], above 100 µM; in assay [14], above 100 µM; in assay [15], above 100 µM; in assay [16], 70.8 µM. For the same compound, the TGI in [17] and in assay [18] was above 100 µM throughout.
Take `C[S+](C)CC(=O)c1ccc2c(c1)Sc1ccccc1O2`: the TGI in assay [1] was 7.71 µM; in [2], 10.1 µM; in assay [3], 14.2 µM; in assay [4], above 50.9 µM; in [5], 11.5 µM; in assay [6], 2.5 µM. The TGI is above 100 µM in assay [7]; 9.38 µM in [8]; 36.3 µM in [9]; 7.58 µM in assay [10]; 18.8 µM in assay [19]; 25.1 µM in assay [20]. Also, the TGI in [11] was 10 µM; in assay [12], 9.15 µM; in [13] it was above 100 µM; in assay [14], 20.9 µM; in assay [15], 9.49 µM; in assay [16], 17.6 µM. For the same compound, the TGI is 13.2 µM in [17] and above 43.2 µM in assay [18].
On to `O[C@H]1[C@H]2[C@H](O)C[C@H](CCOCc3ccccc3)CN2C[C@H]1O`, for which the TGI in [1], in [2], in assay [3], in assay [4], in [5] and in assay [6] was above 100 µM in each case. In addition, the TGI in assay [7], in [8], in assay [9], in assay [10], in assay [19] and in assay [20] was above 100 µM throughout. Besides, the TGI in [11], in assay [12], in assay [13], in assay [14], in assay [15] and in [16] was above 100 µM in each case. Further, the TGI in assay [17] and in assay [18] was above 100 µM throughout.
On to `O=S(=O)(O)c1cc(N=Nc2cc(S(=O)(=O)O)c3cccnc3c2O)ccc1/C=C/c1ccc(N=Nc2cc(S(=O)(=O)O)c3cccnc3c2O)cc1S(=O)(=O)O`, for which the TGI in [1] is above 100 µM; in assay [2], above 100 µM; in [3] it was above 100 µM; in assay [4], 51.1 µM; in assay [5] it was above 100 µM; in [6] it was above 100 µM. Besides, the TGI in assay [7] is 56.5 µM; in assay [8], above 100 µM; in [9], above 100 µM; in [10], above 100 µM; in assay [19], above 100 µM; in assay [20], above 100 µM. Also, the TGI in [11] is above 100 µM; in [12] it was above 100 µM; in [13], 52.5 µM; in assay [14] it was above 100 µM; in [15] it was above 100 µM; in assay [16] it was above 100 µM. Also, the TGI in [17] and in assay [18] was above 100 µM each time.
Regarding `C[C@H](CCC(=O)O)[C@H]1CC[C@H]2[C@@H]3[C@H](O)C[C@@H]4C[C@H](O)CC[C@]4(C)[C@H]3CC[C@]12C`, the TGI in [1] was 79.9 µM; in assay [2], above 100 µM; in assay [3] it was 57.4 µM; in assay [4], 47.4 µM; in assay [5], 78.3 µM; in assay [6], above 100 µM. Moreover, the TGI in [7] was above 100 µM; in assay [8], above 100 µM; in [9], above 100 µM; in assay [19] it was above 100 µM; in assay [20], above 100 µM; in assay [11] it was 53.5 µM. The TGI in [12] was 87.4 µM; in assay [13], above 100 µM; in [14], above 100 µM; in assay [15] it was above 100 µM; in assay [16], above 100 µM; in assay [17] it was above 100 µM. This compound also yielded a TGI in [18] above 100 µM.
On to `O=C1CCCCCC1CC(Sc1ccccc1)Sc1ccccc1` (stereo unspecified), for which the TGI in assay [1], in assay [2], in assay [3], in assay [4], in assay [5] and in assay [6] was above 100 µM throughout. Moreover, the TGI in [7] was 52.7 µM; in assay [8], above 100 µM; in assay [10], above 100 µM; in assay [19] it was above 100 µM; in assay [20], above 100 µM; in assay [11] it was above 100 µM. Moreover, the TGI in [12], in assay [13], in assay [14], in assay [15], in assay [16] and in assay [17] was above 100 µM in each case. This compound also showed a TGI in assay [18] above 100 µM.
